Measured values taken from patent US20240368065A1 (HELMHOLTZ-ZENTRUM FÜR INFEKTIONSFORSCHUNG GMBH, priority 2021, published 2024).

What was measured:
[1] = test system: CXCL10 mRNA (encoding IP-10); assay: CXCL10 mRNA expression in influenza A virus-infected dTHP1 cells (RT-qPCR); type: cell-based, human; details: dTHP1 infected with influenza A virus PR8M, MOI 1, 12 h after infection; increasing concentrations; compared among CA, IA, MA
[2] = test system: reactive oxygen species (ROS) in dTHP1 cells; assay: Mitochondrial ROS in influenza A virus-infected dTHP1 cells (MitoSox Red, flow cytometry); type: cell-based, human; details: dTHP1 infected with influenza A virus, 10 mM compound, 12 h after infection
Experimental: dTHP1 Cells were seeded at a density of 2×10^5 cells per well in a 12-well plate and infected with influenza A virus at an MOI of 1. Mitochondrial ROS were measured 12 h after infection. Cells were incubated for 5 min with medium containing 5 μM of MitoSox Red (mitochondrial superoxide indicator, Invitrogen) and were washed with PBS. Cells were then resuspended in cold PBS and mitochondrial ROS was measured via the phycoerythrin (PE) channel using a BD™ LSR-II flow cytometer.
As can be observed in FIG. 2, dTHP1 cells were infected with influenza A virus, incubated with 10 mM CA, IA, or MA, and reactive oxygen species (ROS) were measured by flow cytometry.

phosphorylated STAT1 = assay: STAT1 phosphorylation immunoblot in influenza A virus-infected A549 and dTHP1 cells; type: cell-based, human; details: A549 and dTHP1 cells infected with influenza A virus; anti-P-STAT1 immunoblot
Experimental: A549 and dTHP1 cells were infected with influenza A virus and treated with CA, IA or MA.
2×10^5 dTHP1 cells were infected with influenza A virus (H1N1) strain PR8M at a multiplicity of infection of 1. 12 h after infection, cells were washed in buffer, pelleted, and protein extracts resolved by gel electrophoresis and transferred to a nylon membrane. Bands corresponding to phosphorylated Stat1 protein were visualized by enhanced chemiluminescense using specific anti-P-STAT1 primary antibody and […] as secondary antibody.
As can be observed from FIG. 3, A549 and dTHP1 cells were infected with influenza A virus and treated with CA, IA or MA. […] STAT1 phosphorylation is known to be associated with inflammation, and thus CA represents an effective substance in reducing inflammation.

[3] = test system: Nrf2 signaling (AKR1B10 mRNA); assay: Induction of Nrf2 signaling: AKR1B10 mRNA in HaCaT cells (RT-qPCR); type: cell-based, human; details: 12 hours treatment
Experimental: Induction was greatest by CA, intermediate by IA and lowest by MA.
The immortalized human keratinocyte cell line HaCaT was grown in RPMI 1640 medium (GIBCO Life Technologies, Karlsruhe, Germany) supplemented with 30% FCS, 100 μg/mL pen/strep, 500 μg/mL gentamycin and 1% each Glutamax and nonessential amino acid solution (NEAA; GIBCO Life Technologies, Karlsruhe, Germany). Cells were treated with the indicated concentrations of itaconate, mesaconate and citraconate for 12 hours. Cells were then washed in buffer, pelleted, and RNA was extracted for subsequent analysis of expression of AKR1B10, which is specifically activated by Nrf2 signaling in this cell line. AKR1B10 mRNA expression was determined by RT-qPCR.
Induction was greatest by CA compared to both IA and MA.

[4] = test system: influenza A virus (H1N1/34/PR/8M); type: cell-based
[5] = target: succinate dehydrogenase (SDH) (Homo sapiens, UniProt P31040); assay: Preliminary data on binding to succinate dehydrogenase
Sequence of succinate dehydrogenase (SDH) (P31040 43-664): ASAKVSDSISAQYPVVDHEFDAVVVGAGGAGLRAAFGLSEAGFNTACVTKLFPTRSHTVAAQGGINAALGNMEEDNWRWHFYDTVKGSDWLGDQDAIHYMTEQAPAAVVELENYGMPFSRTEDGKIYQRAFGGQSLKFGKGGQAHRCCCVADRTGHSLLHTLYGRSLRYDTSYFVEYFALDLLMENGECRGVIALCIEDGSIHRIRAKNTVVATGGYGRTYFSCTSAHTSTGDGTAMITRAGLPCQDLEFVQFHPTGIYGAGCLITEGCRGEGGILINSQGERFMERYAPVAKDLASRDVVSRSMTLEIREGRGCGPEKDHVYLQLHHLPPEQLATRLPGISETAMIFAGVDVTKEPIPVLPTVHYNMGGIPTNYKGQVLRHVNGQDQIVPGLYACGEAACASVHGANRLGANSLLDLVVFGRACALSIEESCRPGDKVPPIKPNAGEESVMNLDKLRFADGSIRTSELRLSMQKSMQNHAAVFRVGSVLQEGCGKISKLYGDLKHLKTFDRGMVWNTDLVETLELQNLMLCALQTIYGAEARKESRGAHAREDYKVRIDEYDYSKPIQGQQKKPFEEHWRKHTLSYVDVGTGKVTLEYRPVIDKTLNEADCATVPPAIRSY
Sequence of succinate dehydrogenase (SDH) (P21912 29-280 partner): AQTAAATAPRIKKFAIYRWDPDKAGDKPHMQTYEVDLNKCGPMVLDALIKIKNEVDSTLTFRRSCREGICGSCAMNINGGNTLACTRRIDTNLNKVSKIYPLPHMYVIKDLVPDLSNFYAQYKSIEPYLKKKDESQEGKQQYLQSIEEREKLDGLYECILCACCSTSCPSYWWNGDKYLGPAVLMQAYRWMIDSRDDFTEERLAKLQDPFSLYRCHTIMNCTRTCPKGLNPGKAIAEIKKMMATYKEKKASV
Sequence of succinate dehydrogenase (SDH) (Q99643 30-169 partner): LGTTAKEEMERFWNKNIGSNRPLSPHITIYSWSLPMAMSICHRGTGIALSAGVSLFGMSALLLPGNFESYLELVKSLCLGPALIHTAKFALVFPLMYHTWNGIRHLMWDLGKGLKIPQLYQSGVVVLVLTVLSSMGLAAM
Sequence of succinate dehydrogenase (SDH) (O14521 57-159 partner): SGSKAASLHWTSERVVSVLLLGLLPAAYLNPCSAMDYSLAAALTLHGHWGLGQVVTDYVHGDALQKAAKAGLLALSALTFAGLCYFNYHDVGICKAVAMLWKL

purified hACOD1 = target: T1, purified hACOD1 (Homo sapiens, UniProt A6NK06); assay: hACOD1 enzyme activity in vitro assay, competitive inhibition; type: biochemical; details: purified hACOD1, substrate cis-aconitate, competitive inhibition fit, pH 6.5, 37° C.; read-out: Inhibition constant (Ki)
T1 construct: made in house
T1 sequence (A6NK06 1-481): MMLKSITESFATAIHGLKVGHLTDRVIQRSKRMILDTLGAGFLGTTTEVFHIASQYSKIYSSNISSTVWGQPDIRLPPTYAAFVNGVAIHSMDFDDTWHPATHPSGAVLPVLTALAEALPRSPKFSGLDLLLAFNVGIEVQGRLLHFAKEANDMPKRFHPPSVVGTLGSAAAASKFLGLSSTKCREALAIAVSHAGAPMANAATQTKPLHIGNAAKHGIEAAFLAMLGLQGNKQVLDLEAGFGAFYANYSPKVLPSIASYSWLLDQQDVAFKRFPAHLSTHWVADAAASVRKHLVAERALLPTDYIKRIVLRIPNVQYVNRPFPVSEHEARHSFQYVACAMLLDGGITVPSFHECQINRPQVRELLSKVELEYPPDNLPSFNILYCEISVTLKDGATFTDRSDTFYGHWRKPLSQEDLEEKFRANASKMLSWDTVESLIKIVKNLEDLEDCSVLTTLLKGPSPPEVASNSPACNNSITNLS
Experimental: The activity of purified hACOD1 was measured in the presence of increasing concentrations of substrate and the five inhibitors. The data were globally fitted to the Michaelis-Menten equation for competitive inhibition.
The activity of purified hACOD1 was measured in the presence of increasing concentrations of substrate and the five inhibitors. The data was globally fitted to the Michaelis-Menten equation for competitive inhibition.
The compounds were dissolved in water, neutralized with NaOH and stored at −20° C. For the assay, 125 μL 0.2 M sodium phosphate buffer, pH 6.5, was mixed on ice with 5 μL enzyme, 10 μl inhibitor (or 10 μl water) and 10 μL substrate (cis-aconitic acid). The following combinations of enzyme amount and substrate concentration were used for CA: 2 μg enzyme and 0.1 mM substrate, 2 μg and 0.3 mM, 3 […] and 1 mM, 5 μg and 3.0/10.0 mM. For the other inhibitors, 2 μg enzyme and 0.1/0.2/0.5 mM substrate, 3 μg and 1.0/2.0 mM, 5 μg and 5.0/10.0 mM. Incubation for 10 min at 37° C. was immediately followed by heat inactivation at 95° C. for 3 min. Protein precipitate was pelleted by centrifugation for 1 h. Supernatants were acidified with 100 μL 100 mM H3PO4.

ACOD1 = target: T2, ACOD1 (Homo sapiens, UniProt A6NK06); assay: Cellular ACOD1 inhibition: intracellular itaconate in PMA-differentiated THP1 stimulated with LPS/IFNγ (HPLC-MS/MS); type: cell-based; details: compared with citraconic acid
T2 construct: THP1 were differentiated with PMA and then stimulated with LPS/IFNγ for 24 hours; endogenous in cells; host or cells: THP1 (PMA-differentiated, LPS/IFNγ-stimulated)
T2 sequence (A6NK06 1-481): T1 sequence (A6NK06 1-481)
Experimental: FIG. 9: Ethyl homologue of the methyl group of citraconate enhances ACOD1 inhibition in a cellular assay. […] ACOD1 activity was assessed by measuring intracellular itaconate concentrations by HPLC-MS/MS as described in (Winterhoff,
Chen et al Metabolites 2021). IC50=inhibitory concentration 50%; CC50 =cytotoxic concentration 50%; SI=selectivity index=CC50/IC50.
Methylation of the […] of citraconate thus enhances ACOD1 inhibition in a cellular assay. […] ACOD1 activity was assessed by measuring intracellular itaconate concentrations by HPLC-MS/MS as described in Winterhoff, Chen et al (Metabolites 2021).

[6] = test system: mitochondrial ROS in NRF2−/− human vascular endothelial cells; assay: Mitochondrial ROS in human vascular endothelial cells infected with human coronavirus 229E (flow cytometry); type: cell-based; details: NRF2−/− cells infected with human coronavirus 229E, 24 h after infection, co-incubation
Experimental: FIG. 10: (Z)-2-Ethylbut-2-enedioic acid maintains anti-oxidative properties. Wild-type or NRF2−/−human vascular endothelial cells were infected with human coronavirus 229E (a low pathogenic, seasonal strain), and mitochondrial ROS levels were measured by flow cytometry 24 h after infection.
Maintenance of anti-ROS activity of (Z)-2-ethylbut-2-enedioic acid (“ethylcitraconic acid”; Formula VIII) is shown in a model of infection of cells by a human coronavirus 229E, a low pathogenic CoV strain. Despite the methylation of CA evident in Formel VIII (a methylation that could theoretically lead to loss of electrophilicity), the compound (Z)-2-Ethylbut-2-enedioic acid maintains anti-oxidative properties. Wild-type or NRF2−/−human vascular endothelial cells were infected with human coronavirus 229E (a low pathogenic, seasonal strain), and mitochondrial ROS levels were measured by flow cytometry 24 h after infection.

Row | Structure (SMILES) | STAT1 phosphorylation (phosphorylated STAT1) | Induction of AKR1B10 mRNA (Nrf2 signaling) [3] | Ki (purified hACOD1) | further results
1 | C/C(=C/C(=O)O)C(=O)O [citraconic acid] | reduced STAT1 phosphorylation | greatest |  | Reduction of CXCL10 mRNA [1]: greatest; Reduction of reactive oxygen species (ROS) [2]: significant reduction; Viral RNA (hemagglutinin [HA] mRNA) [4]: not influenced; Viral titres in culture supernatants [4]: significantly reduced; Direct binding to SDH [5]: does not directly bind SDH
2 | CC/C(=C/C(=O)O)C(=O)O [(Z)-2-ethylbut-2-enedioic acid] |  |  | 0.235 ± 0.021 µM | Cytotoxicity (ACOD1): remains the same; Selectivity index (CC50/IC50) (ACOD1): increases; ACOD1 inhibition in cellular model (ACOD1; dTHP1, LPS/IFNγ 24 hours, intracellular itaconate): increased ACOD1 inhibition; Mitochondrial ROS levels [6]: reduced to levels seen in uninfected WT cells
3 | O=C(O)/C=C(\C(=O)O)c1ccccc1 [2-phenylmaleic acid, 2-Phenylmaleic acid] |  |  | 60 ± 30 µM | 
4 | O=C(O)C1=C(C(=O)O)CCC1 [cyclopent-1-ene-1,2-dicarboxylic acid, Cyclopent-1-ene-1,2-dicarboxylic acid] |  |  | 39 ± 2 µM | 
5 | C=C(CC(=O)O)C(=O)O [itaconic acid] | reduced STAT1 phosphorylation | intermediate |  | Reduction of reactive oxygen species (ROS) [2]: significant reduction
6 | CC1CCC(C(=O)O)=C1C(=O)O (centres unmarked) [3-Methyl-cyclopent-1-ene-1,2-dicarboxylic acid] |  |  | 0.335 µM | 
7 | C/C(=C\C(=O)O)C(=O)O [mesaconic acid] | reduced STAT1 phosphorylation | lowest |  | 
